Like-named read-outs stand apart in the source and are kept apart here.
Assays:
[1] = tested on: purified enzyme (capsaicin hydrolysis activity); experiment: Effects of various reagents upon enzymatic activity (capsaicin hydrolysis); format: biochemical, Streptomyces mobaraensis IFO 13819
[2] = tested on: Penicillin Vacylase originated from Streptomyces lavendulae; details: cited from earlier work; for Activity kcat: substrate of Streptomyces lavendulae Penicillin V acylase, Torres-Guzman et al. 2002
[3] = tested on: Streptomyces mobaraensis (enzyme according to the invention); experiment: Hydrolysis of antibiotic substances having an amide bond by the enzyme of the invention; format: biochemical; details: for hydrolyzing activity for the substrate: 10 mM antibiotic, pH 7.5, 37° C., 2 minutes, 0.1 mM CoCl2, 1 Unit = 1 μmol substrate hydrolyzed in 1 hour; for Activity kcat (approximate value): substrate of the enzyme according to the invention
Protocol: The enzyme is examined on the hydrolysis of an antibiotic substance having an amide bond. As the antibiotic substance are used Penicillin G, Penicillin V and Ampicillin, respectively. The reaction is carried out at 37° C. for 2 minutes by using 20 μg of the enzyme in 0.1 ml of 50 mM tris-hydrochloric acid buffer solution containing 0.1 mM of CoCl2 as a solvent (pH: 7.5) under a condition that a final concentration of the antibiotic substance is 10 mM.
As a result, if the hydrolyzing activity for capsaicin at pH of 7.5 is 200 U/mg (Unit is defined as an amount of the enzyme required for hydrolyzing 1 μmol of the substrate at 37° C. for 1 hour), the activities for Penicillin G, Penicillin V and Ampicillin are 2200 U, 6000 U and 1000 U, respectively.
In order to show the utility of the enzyme according to the invention, it is compared with the existing Penicillin Vacylase originated from Streptomyces lavendulae (Raquel Torres-Guzman et al., Biochemical and Biophysical Research Communications, Vol. 291, 593-0597 (2002)) (compared with activity kcat (1/s)).

[4] = pH dependency, heat stability and temperature dependency of the purified enzyme; format: physicochemical, Streptomyces mobaraensis IFO 13819
[5] = tested on: Urethane hydrolase IV (strain F-86); details: cited from earlier work
[6] = tested on: Streptomyces mobaraensis (enzyme according to the invention); experiment: Hydrolysis of N-benzyloxycarbonyl-L-amino acids by the enzyme of the invention; format: biochemical
Protocol: An ability of hydrolyzing/dehydration condensing by the enzyme according to the invention is examined by using N-benzyloxycarbonyl-L-amino acid (Z-L-amino acid) as an amide. The reaction is performed by using […] of the enzyme in 0.2 ml of 50 mM tris-hydrochloric acid buffer solution containing 0.1 mM of CoCl2 as a solvent (pH: 7.5) under a condition that a final concentration of N-benzyloxycarbonyl-L-amino acid is 10 mM at 37° C. for 30 minutes (Z-L-Phe and Z-L-Tyr) or 1 hour (the other Z-L-amino acids).

[7] = tested on: Capsaicin hydrolyzing/dehydration condensing enzyme of the invention; details: fatty acid as substrate with vanillylamine; water/n-hexane two-phase system, 37° C.; HPLC of hexane phase
Protocol: (§1) The reaction temperature is 37° C.
(§2) As a comparative example, aminoacylase is used. The resulting capsaicin analog is quantitatively measured by HPLC analysis of the hexane phase.

Aminoacylase = experiment: Synthesis of capsaicin analogs from vanillylamine and fatty acids, comparative aminoacylase; format: biochemical; details: comparative example; fatty acid as substrate with vanillylamine; water/n-hexane two-phase system, 37° C.; HPLC of hexane phase
Protocol: as §1, §2

[8] = reagent 1 mM, 0.13 mM capsaicin/50 mM tris-HCl (pH 7.5), control = 100
[9] = 10 mM Z-L-amino acid, pH 7.5, 37° C., 0.1 mM CoCl2

## O=[N+]([O-])[O-].[Ag+] [AgNO3]
[1]; [8]
  Relative activity: 100.1%

## CC1(C)S[C@@H]2[C@H](NC(=O)[C@H](N)c3ccccc3)C(=O)N2[C@H]1C(=O)O [Ampicillin]
[2]
  Activity for the substrate: hardly an activity
  Activity kcat: 0 s⁻¹
[3]
  Activity for the substrate: excellent activity
  hydrolyzing activity for the substrate: 1000 U
  Activity kcat (approximate value): >17 s⁻¹

## [Ca+2].[Cl-].[Cl-] [CaCl2]
[1]; [8]
  Relative activity: 101.6%

## [Cl-].[Cl-].[Co+2] [CoCl2]
[1]
  effect on capsaicin hydrolysis activity of the purified enzyme: enhanced
[1]; pH 7.5
  Relative activity: 145.5%
[4]
  residual activity with added cobalt ion vs no cobalt ion: higher

## O=S(=O)([O-])[O-].[Cu+2] [CuSO4]
[1]; [8]
  Relative activity: 96.9%

## O=C(NC(CSCc1ccccc1)C(=O)O)OCc1ccccc1 (stereo not shown) [Cys(Bzl)]
[5]; Matsumura et al. 1985
  Activity for the substrate: 228 Unit/mg
[6]; [9]
  Activity for the substrate: 250 Unit/mg

## O[C@@H](CS)[C@@H](O)CS [DTT]
[1]; [8]
  Relative activity: 79.8%

## O=C(O)CN(CCN(CC(=O)O)CC(=O)O)CC(=O)O [EDTA]
[1]; pH 7.5
  Relative activity: 85.5%

## O=S(=O)([O-])[O-].[Fe+2] [FeSO4]
[1]; [8]
  Relative activity: 88.8%

## N[C@@H](CCC(=O)N[C@@H](CS)C(=O)NCC(=O)O)C(=O)O [GSH]
[1]; [8]
  Relative activity: 99.8%

## NC(=O)CI [Idoacetoamide]
[1]; [8]
  Relative activity: 86.5%

## N[C@@H](CS)C(=O)O [L-Cys]
[1]; [8]
  Relative activity: 101.2%

## CCCCCCCCCCCC(=O)O [Lauric acid]
[7]
  Synthesis of capsaicin analogs: 1.25 mM
Aminoacylase
  Synthesis of capsaicin analogs: 0.051 mM

## O=S(=O)([O-])[O-].[Mg+2] [MgSO4]
[1]; [8]
  Relative activity: 96.0%

## CCCCCCCCCCCCCC(=O)O [Myristic acid]
[7]
  Synthesis of capsaicin analogs: 0.24 mM

## O=C(O)c1cc[c]([Hg][Cl])cc1 [PCMB]
[1]; [8]
  Relative activity: 96.6%

## CC1(C)S[C@@H]2[C@H](NC(=O)Cc3ccccc3)C(=O)N2[C@H]1C(=O)O [Penicillin G]
[2]
  Activity for the substrate: hardly an activity
  Activity kcat: 3.4 s⁻¹
[3]
  Activity for the substrate: excellent activity
  hydrolyzing activity for the substrate: 2200 U
  Activity kcat (approximate value): >50 s⁻¹

## CC1(C)S[C@@H]2[C@H](NC(=O)COc3ccccc3)C(=O)N2[C@H]1C(=O)O [Penicillin V]
[2]
  Activity kcat: 60.25 s⁻¹
[3]
  hydrolyzing activity for the substrate: 6000 U
  Activity kcat (approximate value): >80 s⁻¹

## C[C@H](NC(=O)OCc1ccccc1)C(=O)O [Z-Ala]
[5]; Matsumura et al. 1985
  Activity for the substrate: 228 Unit/mg
[6]; [9]
  Activity for the substrate: 29 Unit/mg

## N=C(N)NCCC[C@H](NC(=O)OCc1ccccc1)C(=O)O [Z-Arg]
[5]; Matsumura et al. 1985
  Activity for the substrate: 0 Unit/mg
[6]; [9]
  Activity for the substrate: 37 Unit/mg

## NC(=O)C[C@H](NC(=O)OCc1ccccc1)C(=O)O [Z-Asn]
[5]; Matsumura et al. 1985
  Activity for the substrate: 138 Unit/mg
[6]; [9]
  Activity for the substrate: 12 Unit/mg

## O=C(O)C[C@H](NC(=O)OCc1ccccc1)C(=O)O [Z-Asp]
[5]; Matsumura et al. 1985
  Activity for the substrate: 360 Unit/mg

## NC(=O)CC[C@H](NC(=O)OCc1ccccc1)C(=O)O [Z-Gln]
[5]; Matsumura et al. 1985
  Activity for the substrate: 144 Unit/mg
[6]; [9]
  Activity for the substrate: 27 Unit/mg

## O=C(O)CC[C@H](NC(=O)OCc1ccccc1)C(=O)O [Z-Glu]
[5]; Matsumura et al. 1985
  Activity for the substrate: 246 Unit/mg
[6]; [9]
  Activity for the substrate: 12 Unit/mg

## O=C(O)CNC(=O)OCc1ccccc1 [Z-Gly]
[5]; Matsumura et al. 1985
  Activity for the substrate: 108 Unit/mg
[6]; [9]
  Activity for the substrate: 0 Unit/mg

## O=C(NC(Cc1cnc[nH]1)C(=O)O)OCc1ccccc1 (stereo not shown) [Z-His]
[5]; Matsumura et al. 1985
  Activity for the substrate: 18 Unit/mg
[6]; [9]
  Activity for the substrate: 36 Unit/mg

## CCC(C)C(NC(=O)OCc1ccccc1)C(=O)O (stereo not shown) [Z-Ile]
[5]; Matsumura et al. 1985
  Activity for the substrate: 18 Unit/mg
[6]; [9]
  Activity for the substrate: 28 Unit/mg

## CC(C)C[C@H](NC(=O)OCc1ccccc1)C(=O)O [Z-Leu]
[5]; Matsumura et al. 1985
  Activity for the substrate: 1668 Unit/mg
[6]; [9]
  Activity for the substrate: 100 Unit/mg

## NCCCC[C@H](NC(=O)OCc1ccccc1)C(=O)O [Z-Lys]
[5]; Matsumura et al. 1985
  Activity for the substrate: 0 Unit/mg
[6]; [9]
  Activity for the substrate: 38 Unit/mg

## CSCCC(NC(=O)OCc1ccccc1)C(=O)O (stereo not shown) [Z-Met]
[5]; Matsumura et al. 1985
  Activity for the substrate: 294 Unit/mg
[6]; [9]
  Activity for the substrate: 85 Unit/mg

## O=C(N[C@@H](Cc1ccccc1)C(=O)O)OCc1ccccc1 [Z-Phe]
[5]; Matsumura et al. 1985
  Activity for the substrate: 54 Unit/mg
[5]
  Activity for the substrate: lower activity
[6]
  Activity for the substrate: high activity
[6]; [9]
  Activity for the substrate: 470 Unit/mg

## O=C(N[C@@H](CO)C(=O)O)OCc1ccccc1 [Z-Ser]
[5]; Matsumura et al. 1985
  Activity for the substrate: 18 Unit/mg
[6]; [9]
  Activity for the substrate: 0 Unit/mg

## C[C@@H](O)[C@H](NC(=O)OCc1ccccc1)C(=O)O [Z-Thr]
[5]; Matsumura et al. 1985
  Activity for the substrate: 162 Unit/mg
[6]; [9]
  Activity for the substrate: 4.5 Unit/mg

## O=C(N[C@@H](Cc1ccc(O)cc1)C(=O)O)OCc1ccccc1 [Z-Tyr]
[5]; Matsumura et al. 1985
  Activity for the substrate: 0 Unit/mg
[5]
  Activity for the substrate: lower activity
[6]
  Activity for the substrate: high activity
[6]; [9]
  Activity for the substrate: 650 Unit/mg

## CC(C)C(NC(=O)OCc1ccccc1)C(=O)O (stereo not shown) [Z-Val]
[5]; Matsumura et al. 1985
  Activity for the substrate: 84 Unit/mg
[6]; [9]
  Activity for the substrate: 43 Unit/mg

## [Cl-].[Cl-].[Zn+2] [ZnCl2]
[1]; [8]
  Relative activity: 95.5%

## COc1cc(CNC(=O)CCCC/C=C/C(C)C)ccc1O [capsaicin]
[3]; pH 7.5, reference value for the antibiotic activities
  hydrolyzing activity for capsaicin: 200 U/mg

## OCCS [β-mercaptoethanol]
[1]; reagent 10 mM, 0.13 mM capsaicin/50 mM tris-HCl (pH 7.5), control = 100
  Relative activity: 79.3%

## (NH4)6Mo7O24
[1]; [8]
  Relative activity: 88.7%
